Source: patent US20260285853A1, “COMPOUNDS AND METHODS FOR MODULATING SPLICING” (REMIX THERAPEUTICS INC., priority 2023, published 2026)

Columns and labels:
Assay type in all cases: cell-based
[1] = system: SH-SY5Y (human neuroblastoma) cells; assay: Cell viability, Cell Titer Glo 2.0 assay; settings: read-out: Viability SHSY5Y.3 GI50
Outline: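 Following a 72 h incubation (37 °C, 5% CO2, 0.1% DMSO final), compound toxicity toward SH-SY5Y cells was quantified by CellTiter-Glo 2.0.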

HTT mRNA [2] = assay: Splicing RT-qPCR assay (THP), Table 2A
MYB mRNA [3] = assay: Splicing RT-qPCR assay, canonical (CJ) and alternative (AJ) junction mRNA, K562 cells; settings: Homo sapiens, K562.3 cells, 24 hours; for AC50: read-out: MYB AJ (AC50, increase in AJ mRNA); for IC50: read-out: MYB CJ (IC50, decrease in CJ mRNA)
Outline: (§1)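 Plate K562 cells, add compound (top 10 uM final, DMSO ≤0.25%) and incubate 24 h. Lyse, run one-step RT-qPCR for CJ and AJ, normalize to GAPDH or GUSB, then to DMSO, and express as % response.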

HTT mRNA [4] = assay: as above; settings: Homo sapiens, K562.3 cells, 24 hours; for AC50: read-out: HTT AJ (AC50, increase in AJ mRNA); for IC50: read-out: HTT CJ (IC50, decrease in CJ mRNA)
Outline: as §1

MYB mRNA [5] = assay: Splicing RT-qPCR assay (THP), Table 2A
[6] = Table 2A (THP), AJ mRNA increase, read-out: HTT AJ (increase in alternative junction mRNA, AC50)
[7] = Table 2A (THP), CJ mRNA decrease, read-out: HTT CJ (decrease in canonical junction mRNA, IC50)
[8] = Table 2A (THP), AJ mRNA increase, read-out: MYB AJ (increase in alternative junction mRNA, AC50)
[9] = Table 2A (THP), CJ mRNA decrease, read-out: MYB CJ (decrease in canonical junction mRNA, IC50)

Row | GI50 [1] | IC50 (HTT mRNA [2]; [7]) | IC50 (MYB mRNA [3]) | IC50 (HTT mRNA [4]) | IC50 (MYB mRNA [5]; [9]) | IC50 (HTT mRNA [2]; Table 2A, THP, HTT canonical junction (CJ) mRNA, read-out: HTT CJ (IC50, decrease in canonical junction mRNA)) | IC50 (MYB mRNA [5]; Table 2A, THP, MYB canonical junction (CJ) mRNA, read-out: MYB CJ (IC50, decrease in canonical junction mRNA)) | Structure (SMILES) | AC50 (HTT mRNA [2]; [6]) | AC50 (MYB mRNA [3]) | AC50 (HTT mRNA [4]) | AC50 (MYB mRNA [5]; [8]) | AC50 (HTT mRNA [2]; Table 2A, THP, HTT alternative junction (AJ) mRNA, read-out: HTT AJ (AC50, increase in alternative junction mRNA)) | AC50 (MYB mRNA [5]; Table 2A, THP, MYB alternative junction (AJ) mRNA, read-out: MYB AJ (AC50, increase in alternative junction mRNA))
1 | 1000 to 10000 nM | 1000 to 10000 nM | 100 to 1000 nM | 100 to 1000 nM | 100 to 1000 nM | – | – | CN[C@H]1C[C@@H](C)N(c2ccc(C(=O)Nc3cc(F)c4nc(C)cn4c3)c3nn(C)cc23)C1 (single isomer, unassigned) [Compound 128] | 1000 to 10000 nM | 100 to 1000 nM | 1000 to 10000 nM | 100 to 1000 nM | – | –
2 | 1000 to 10000 nM | 100 to 1000 nM | 100 to 1000 nM | 100 to 1000 nM | 100 to 1000 nM | – | – | Cc1cn2cc(NC(=O)c3ccc(N4C[C@@H](C)N[C@@H](C)C4)c4nn(C)nc34)cc(F)c2n1 [Compound 252, 7-((3S,5R)-3,5-dimethyl-piperazin-1-yl)-N-(8-fluoro-2-methyl-imidazo[1,2-a]pyridin-6-yl)-2-methyl-2H-benzo[d][1,2,3]triazole-4-carboxamide 2,2,2-trifluoroacetate] | 1000 to 10000 nM | 100 to 1000 nM | 100 to 1000 nM | 100 to 1000 nM | – | –
3 | < 100 nM | < 100 nM | < 100 nM | 100 to 1000 nM | < 100 nM | – | – | COc1nc2c(C(=O)Nc3cc(F)c4nc(C)cn4c3)ccc(N3CCC(N)CC3)c2s1 [Compound 208, 7-(4-aminopiperidin-1-yl)-N-(8-fluoro-2-methylimidazo[1,2-a]pyridin-6-yl)-2-methoxybenzo[d]thiazole-4-carboxamide] | 100 to 1000 nM | < 100 nM | 100 to 1000 nM | < 100 nM | – | –
4 | > 10000 nM | > 10000 nM | > 10000 nM | > 10000 nM | > 10000 nM | – | – | Cc1cn2cc(NC(=O)c3ccc(N4CCNCC4=O)c4[nH]cnc34)cc(F)c2n1 [Compound 257, N-(8-fluoro-2-methyl-imidazo[1,2-a]-pyridin-6-yl)-7-(2-oxopiperazin-1-yl)-1H-benzimidazole-4-carboxamide] | > 10000 nM | > 10000 nM | > 10000 nM | > 10000 nM | – | –
5 | 1000 to 10000 nM | 1000 to 10000 nM | 100 to 1000 nM | > 10000 nM | 100 to 1000 nM | – | – | Cc1cn2cc(NC(=O)c3ccc(N4C[C@H](C)N[C@@H](C)C4)c4[nH]cnc34)cc(F)c2n1 [Compound 221, 7-[(3S,5S)-3,5-dimethylpiperazin-1-yl]-N-(8-fluoro-2-methylimidazo[1,2-a]pyridin-6-yl)-1H-1,3-benzodiazole-4-carboxamide] | 1000 to 10000 nM | 100 to 1000 nM | > 10000 nM | 100 to 1000 nM | – | –
6 | < 100 nM | 100 to 1000 nM | < 100 nM | 100 to 1000 nM | < 100 nM | – | – | Cc1cn2cc(NC(=O)c3ccc(N4CCC(NC5CC5)CC4)c4cc(C)nn34)cc(F)c2n1 [Compound 209, 4-[4-(cyclopropylamino)-1-piperidyl]-N-(8-fluoro-2-methyl-imidazo[1,2-a]pyridin-6-yl)-2-methyl-pyrazolo[1,5-a]pyridine-7-carboxamide] | 100 to 1000 nM | < 100 nM | 100 to 1000 nM | < 100 nM | – | –
7 | < 100 nM | < 100 nM | < 100 nM | 100 to 1000 nM | < 100 nM | – | – | Cc1cn2cc(NC(=O)c3ccc(N4CCC(NC5CC5)CC4)n4cc(C)nc34)cc(F)c2n1 [Compound 210, 5-(4-(cyclopropylamino)piperidin-1-yl)-N-(8-fluoro-2-methylimidazo[1,2-a]pyridin-6-yl)-2-methylimidazo[1,2-a]-pyridine-8-carboxamide] | 100 to 1000 nM | 100 to 1000 nM | 100 to 1000 nM | < 100 nM | – | –
8 | 1000 to 10000 nM | > 10000 nM | < 100 nM | > 10000 nM | < 100 nM | – | – | COCCN[C@@H]1CCN(c2cc(O)c(C(=O)Nc3cc(F)c4nc(C)cn4c3)c3nn(C)cc23)C1 [Compound 285, N-(8-fluoro-2-methyl-imidazo[1,2-a]pyridin-6-yl)-6-hydroxy-4-[(3R)-3-(2-methoxyethylamino)pyrrolidin-1-yl]-2-methyl-indazole-7-carboxamide] | > 10000 nM | < 100 nM | > 10000 nM | < 100 nM | – | –
9 | 100 to 1000 nM | 1000 to 10000 nM | < 100 nM | 1000 to 10000 nM | < 100 nM | – | – | CCNC1CCN(c2ccc(C(=O)Nc3cc(F)c4nn(C)cc4c3)c3nn(C)cc23)CC1 [Compound 182, 4-(4-(ethylamino)piperidin-1-yl)-N-(7-fluoro-2-methyl-2H-indazol-5-yl)-2-methyl-2H-indazole-7-carboxamide] | 1000 to 10000 nM | 100 to 1000 nM | 1000 to 10000 nM | < 100 nM | – | –
10 | 100 to 1000 nM | 100 to 1000 nM | < 100 nM | 1000 to 10000 nM | < 100 nM | – | – | Cc1cn2cc(NC(=O)c3ccc(N4CCC(NC5CC5(C)C)CC4)c4cn(C)nc34)cc(F)c2n1 (stereo not drawn) [Compound 205, 4-(4-((2,2-dimethylcyclopropyl)amino)piperidin-1-yl)-N-(8-fluoro-2-methylimidazo[1,2-a]pyridin-6-yl)-2-methyl-2H-indazole-7-carboxamide] | 100 to 1000 nM | < 100 nM | 1000 to 10000 nM | < 100 nM | – | –
11 | 1000 to 10000 nM | > 10000 nM | > 10000 nM | > 10000 nM | > 10000 nM | – | – | CCNC1CCN(c2ccc(C(=O)Nc3cc(F)c4nc(C)c(C)n4c3)c3nn(C)cc23)CC1 [Compound 188, 4-[4-(ethylamino)-1-piperidyl]-N-(8-fluoro-2,3-dimethyl-imidazo[1,2-a]pyridin-6-yl)-2-methyl-indazole-7-carboxamide] | > 10000 nM | > 10000 nM | > 10000 nM | > 10000 nM | – | –
12 | 1000 to 10000 nM | 1000 to 10000 nM | 100 to 1000 nM | 1000 to 10000 nM | 100 to 1000 nM | – | – | Cc1cn2cc(NC(=O)c3ccc(N4CCNC(C(F)F)C4)c4cn(C)nc34)cc(F)c2n1 (stereo not drawn) [Compound 249, 4-[3-(difluoromethyl)piperazin-1-yl]-N-(8-fluoro-2-methylimidazo[1,2-a]pyridin-6-yl)-2-methyl-indazole-7-carboxamide] | > 10000 nM | 100 to 1000 nM | 1000 to 10000 nM | 100 to 1000 nM | – | –
13 | 1000 to 10000 nM | > 10000 nM | > 10000 nM | > 10000 nM | > 10000 nM | – | – | CCNC1CCN(c2ccc(C(=O)Nc3cc4cn(C)nc4cc3OC)c3[nH]ccc23)CC1 [Compound 178, 4-[4-(ethylamino)-1-piperidyl]-N-(6-methoxy-2-methyl-indazol-5-yl)-1H-indole-7-carboxamide] | > 10000 nM | > 10000 nM | > 10000 nM | > 10000 nM | – | –
14 | 100 to 1000 nM | – | < 100 nM | 100 to 1000 nM | – | 100 to 1000 nM | < 100 nM | COc1c(NC(=O)c2c(F)cc(N3CCNCC3)c3cn[nH]c23)cn2cc(C)nc2c1F [Compound 607, 6-fluoro-N-(8-fluoro-7-methoxy-2-methyl-imidazo[1,2-a]pyridin-6-yl)-4-piperazin-1-yl-1H-indazole-7-carboxamide] | – | < 100 nM | 1000 to 10000 nM | – | 1000 to 10000 nM | < 100 nM
15 | 100 to 1000 nM | > 10000 nM | 100 to 1000 nM | 1000 to 10000 nM | 100 to 1000 nM | – | – | CCNC1CCN(c2ccc(C(=O)Nc3ccc4nc(C)cn4c3)c3nn(C)cc23)CC1 [Compound 176, 4-[4-(ethylamino)-1-piperidyl]-2-methyl-N-(2-methylimidazo[1,2-a]pyridin-6-yl)-indazole-7-carboxamide] | 1000 to 10000 nM | 100 to 1000 nM | > 10000 nM | 100 to 1000 nM | – | –
16 | > 10000 nM | > 10000 nM | 1000 to 10000 nM | > 10000 nM | > 10000 nM | – | – | Cc1cn2cc(NC(=O)c3ccc(N4CCNC(C(F)(F)F)C4)c4cn(C)nc34)cc(F)c2n1 (stereo not drawn) [Compound 248, N-(8-fluoro-2-methyl-imidazo[1,2-a]-pyridin-6-yl)-2-methyl-4-[3-(trifluoro-methyl)piperazin-1-yl]indazole-7-carboxamide] | > 10000 nM | 1000 to 10000 nM | > 10000 nM | 1000 to 10000 nM | – | –
